In ChEMBL document CHEMBL1201862, “PubChem BioAssay data set” (2004):
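48-hour exposure; five concentrations; linearly interpolated endpoints. The concentration for 50% growth inhibition is given as GI50.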 Activity calls are given as the source filed them. Rule as the data show it: active = GI50 up to about 1.1 µM and inactive = higher. Peptide text beside a SMILES is read from it. * marks the point of attachment. OSu = O=C1CCC(=O)N1O*

Experiments:
Test in all cases: growth of human tumour cells (NCI), 48 h
HT-29 = system: HT-29
786-0 = system: 786-0
HL-60 = system: HL-60
Malme-3M = system: Malme-3M
SR = system: SR
K562 = system: K562
SF-539 = system: SF-539
NCI-H460 = system: NCI-H460
KM12 = system: KM12
NCI-H226 = system: NCI-H226
A549 = system: A549
SF-295 = system: SF-295
SNB-75 = system: SNB-75
UACC-257 = system: UACC-257
U-251 = system: U-251
SK-MEL-5 = system: SK-MEL-5
CAKI-1 = system: CAKI-1
RPMI-8226 = system: RPMI-8226
DU-145 = system: DU-145
Hs-578T = system: Hs-578T

Measured: GI50

Cc1nc2c(nc1C)C(=O)c1cc(O)ccc1C2=O
inactive: HT-29 35.2 µM | 786-0 > 95.5 µM | HL-60 31 µM | Malme-3M 20.5 µM | SR 51.1 µM | K562 > 70.3 µM | SF-539 > 81.1 µM | NCI-H460 38.2 µM | KM12 > 100 µM | NCI-H226 > 100 µM | A549 77.6 µM | SF-295 > 87.1 µM | SNB-75 > 100 µM | UACC-257 > 54.6 µM | U-251 > 100 µM | SK-MEL-5 15.6 µM | CAKI-1 > 100 µM | RPMI-8226 > 51.1 µM

N=C(N)NS(=O)(=O)c1ccc(NNc2c3ccccc3nc3c(C(=O)Nc4ccc(S(=O)(=O)Nc5ncccn5)cc4)cccc23)cc1
inactive: HT-29 22.9 µM | 786-0 31.6 µM | HL-60 38.2 µM | Malme-3M 22.1 µM | SR > 10 µM | K562 27.2 µM | SF-539 35.4 µM | NCI-H460 45.3 µM | KM12 30.6 µM | A549 47.8 µM | SF-295 40.2 µM | SNB-75 > 100 µM | DU-145 60.1 µM | UACC-257 66.7 µM | U-251 43.7 µM | SK-MEL-5 26.6 µM | CAKI-1 37.8 µM | RPMI-8226 33.3 µM

O=C(Nc1nnc(-c2c(Cl)c(Cl)c(Cl)c(Cl)c2-c2nc3cc(C(=O)c4ccccc4)ccc3[nH]2)o1)c1ccc(Cl)cc1
inactive: HT-29 37.9 µM | 786-0 30.3 µM | HL-60 20.3 µM | SR 4.88 µM | K562 7.91 µM | SF-539 22.4 µM | KM12 43.5 µM | NCI-H226 26.4 µM | A549 25.6 µM | SF-295 5.86 µM | SNB-75 47.8 µM | DU-145 58.6 µM | UACC-257 36.8 µM | U-251 32 µM | SK-MEL-5 12.2 µM | CAKI-1 40.7 µM | RPMI-8226 81.7 µM

COc1cccc2c1CCc1ccccc1CC2=O
inactive: HT-29 > 100 µM | 786-0 > 100 µM | HL-60 > 100 µM | Malme-3M > 100 µM | SR > 100 µM | K562 > 100 µM | SF-539 > 100 µM | NCI-H460 > 100 µM | KM12 > 100 µM | NCI-H226 > 100 µM | A549 > 100 µM | SF-295 > 100 µM | SNB-75 > 100 µM | UACC-257 > 100 µM | U-251 > 100 µM | SK-MEL-5 > 100 µM | CAKI-1 > 100 µM | RPMI-8226 > 100 µM

Cc1ccc(NC(=O)/C(=N\NC(N)=S)C(C#N)c2ccccc2C)cc1C (configuration not stated)
inactive: HT-29 > 100 µM | 786-0 > 100 µM | HL-60 > 100 µM | Malme-3M > 100 µM | SR > 100 µM | K562 > 100 µM | SF-539 > 100 µM | NCI-H460 > 100 µM | KM12 > 100 µM | NCI-H226 > 100 µM | A549 > 100 µM | SF-295 > 100 µM | SNB-75 66.5 µM | UACC-257 > 100 µM | U-251 > 100 µM | SK-MEL-5 > 100 µM | CAKI-1 > 100 µM | RPMI-8226 > 100 µM

C[Si](C)(C)/N=C1\N2C(=NC1(C(F)(F)F)C(F)(F)F)Sc1ccccc12
inactive: HT-29 > 50 µM | 786-0 > 50 µM | HL-60 > 50 µM | Malme-3M > 50 µM | SR > 50 µM | K562 > 50 µM | SF-539 > 50 µM | NCI-H460 > 50 µM | KM12 > 50 µM | NCI-H226 > 50 µM | A549 > 50 µM | SF-295 > 50 µM | SNB-75 > 50 µM | UACC-257 > 50 µM | U-251 > 50 µM | SK-MEL-5 > 50 µM | CAKI-1 > 50 µM | RPMI-8226 > 50 µM

N#CC(NCCc1ccccc1)c1ccc(C(C#N)NCCc2ccccc2)cc1 (configuration not stated)
inactive: HT-29 49.2 µM | 786-0 72.4 µM | HL-60 14.6 µM | Malme-3M > 100 µM | K562 24.2 µM | SF-539 > 100 µM | NCI-H460 > 100 µM | KM12 > 100 µM | NCI-H226 > 100 µM | A549 > 100 µM | SF-295 > 100 µM | DU-145 > 100 µM | UACC-257 > 100 µM | U-251 8.17 µM | SK-MEL-5 32.1 µM | CAKI-1 > 100 µM | Hs-578T 71.8 µM

CN1C2=C(CC3=C1CC(C)(C)CC3=O)C(=O)CC(C)(C)C2
inactive: HT-29 > 100 µM | 786-0 > 100 µM | HL-60 > 100 µM | SR > 100 µM | K562 > 100 µM | SF-539 > 100 µM | NCI-H460 > 100 µM | KM12 > 100 µM | NCI-H226 > 100 µM | A549 > 100 µM | SNB-75 > 100 µM | U-251 > 100 µM | SK-MEL-5 > 100 µM | CAKI-1 > 100 µM | Hs-578T > 100 µM | RPMI-8226 > 100 µM

CSC1=C(c2ccc(Cl)cc2)SC(N2CCCCC2)N1c1ccc([N+](=O)[O-])cc1 (configuration not stated)
inactive: HT-29 30.6 µM | 786-0 31.6 µM | HL-60 25.5 µM | Malme-3M 45.2 µM | SR 31.3 µM | K562 33 µM | SF-539 21.3 µM | NCI-H460 23.6 µM | KM12 31 µM | NCI-H226 76.9 µM | A549 29.2 µM | SF-295 24 µM | SNB-75 26.2 µM | UACC-257 24.8 µM | U-251 21.4 µM | SK-MEL-5 14.6 µM | CAKI-1 44.8 µM | Hs-578T 47.9 µM | RPMI-8226 16.6 µM

O=C1C(Cl)C(c2cccc(O)c2)N1n1cnc2ccccc2c1=O (configuration not stated)
inactive: HT-29 > 100 µM | 786-0 > 100 µM | HL-60 64.7 µM | Malme-3M > 100 µM | SR 26 µM | K562 49.1 µM | NCI-H460 > 100 µM | NCI-H226 21.6 µM | A549 > 100 µM | SF-295 > 100 µM | SNB-75 27.9 µM | UACC-257 > 100 µM | U-251 > 100 µM | SK-MEL-5 > 100 µM | CAKI-1 76 µM | RPMI-8226 40.7 µM

O=C(Nc1ccc(F)cc1)C(=O)C(C1OC(=O)c2ccccc21)[N+](=O)[O-] (configuration not stated)
inactive: HT-29 > 100 µM | 786-0 > 100 µM | HL-60 > 100 µM | Malme-3M > 100 µM | SR > 100 µM | K562 > 100 µM | SF-539 > 100 µM | NCI-H460 > 100 µM | KM12 > 100 µM | NCI-H226 > 100 µM | A549 > 100 µM | SF-295 > 100 µM | SNB-75 > 100 µM | UACC-257 > 100 µM | U-251 > 100 µM | SK-MEL-5 > 100 µM | CAKI-1 > 100 µM | RPMI-8226 > 100 µM

CCCC(O)c1ccc2[nH]c3c(C)cc([N+](=O)[O-])c(C)c3c2c1 (configuration not stated)
inactive: HT-29 68.1 µM | 786-0 27.4 µM | HL-60 > 100 µM | Malme-3M > 100 µM | SR > 100 µM | K562 57.4 µM | SF-539 > 100 µM | NCI-H460 > 100 µM | KM12 > 100 µM | NCI-H226 > 100 µM | A549 39.3 µM | SF-295 95.1 µM | SNB-75 > 100 µM | UACC-257 > 100 µM | SK-MEL-5 > 100 µM | CAKI-1 > 100 µM | RPMI-8226 62.1 µM

Fc1ccc(-c2sc(-c3cccs3)cc2Cc2cccs2)cc1
inactive: HT-29 80.2 µM | 786-0 > 100 µM | HL-60 > 100 µM | Malme-3M > 100 µM | K562 > 100 µM | SF-539 > 100 µM | NCI-H460 > 100 µM | KM12 > 100 µM | NCI-H226 > 100 µM | A549 > 100 µM | SF-295 > 100 µM | SNB-75 > 100 µM | DU-145 > 100 µM | UACC-257 > 100 µM | U-251 > 100 µM | SK-MEL-5 > 100 µM | CAKI-1 > 100 µM | Hs-578T > 100 µM

COC1=CC(=O)[C@]2(C)[C@H](C1=O)C(C)[C@H]2c1ccc(OC)cc1 (some centres not stated)
inactive: HT-29 > 100 µM | 786-0 > 100 µM | HL-60 > 100 µM | Malme-3M > 100 µM | SR > 100 µM | K562 > 100 µM | SF-539 > 100 µM | NCI-H460 > 100 µM | KM12 > 100 µM | NCI-H226 > 100 µM | A549 > 100 µM | SF-295 > 100 µM | SNB-75 > 100 µM | UACC-257 91.6 µM | U-251 > 100 µM | SK-MEL-5 > 100 µM | CAKI-1 > 100 µM | RPMI-8226 > 100 µM

NCCCCC(NC(=O)C(N)Cc1ccc(O)cc1)C(=O)NC(CCCCN)C(=O)NC(CCCCN)C(=O)ON1C(=O)CCC1=O (configuration not stated) (H-YKKK-OSu; configuration not given here)
inactive: HT-29 > 100 µM | 786-0 > 100 µM | HL-60 > 100 µM | Malme-3M > 100 µM | SR > 100 µM | K562 > 100 µM | NCI-H460 > 100 µM | KM12 > 100 µM | NCI-H226 > 100 µM | A549 > 100 µM | SNB-75 > 100 µM | UACC-257 > 100 µM | U-251 > 100 µM | SK-MEL-5 > 100 µM | Hs-578T > 100 µM | RPMI-8226 > 100 µM
